Experimental findings from ChEMBL document CHEMBL5385955, “Minor Hydroxylated Triterpenoids Produced in Engineered Yeast by the Enzymes OSC and CYP716s from the Plant Enkianthus chinensis and Their Anti-Inflammatory and Hepatoprotective Activities” (2024) are described below.

The subject of one experiment is HepG2. The experiment can be described thus: Hepatoprotective activity against acetaminophen-induced cell damage in human HepG2 cells assessed as increase in cell survival at 10 uM incubated for 24 hrs by CCK-8 assay relative to control. Type of experiment: functional. To be noted: read-out: Survival.
Experiment [1] deals with RAW264.7. The experiment can be described thus: Antiinflammatory activity in LPS-induced mouse RAW264.7 cells assessed as inhibition of NO production at 10 to 40 uM incubated for 24 hrs by Griess reagent based assay. Type of experiment: functional, cell-based. To be noted: dose 10-40 µM.
Experiment [2] has as its system RAW264.7. Briefly: Antiinflammatory activity in LPS-induced mouse RAW264.7 cells assessed as reduction in IL-1beta mRNA expression incubated for 24 hrs by qPCR analysis. Type of experiment: functional, cell-based. To be noted: dose 10-40 µM.
For experiment [3], the system named is RAW264.7. Briefly: Antiinflammatory activity in LPS-induced mouse RAW264.7 cells assessed as reduction in IL-6 mRNA expression incubated for 24 hrs by qPCR analysis. To be noted: dose 10-40 µM. The format is functional, cell-based.
The test system of experiment [4] is RAW264.7. The experiment can be described thus: Antiinflammatory activity in LPS-induced mouse RAW264.7 cells assessed as reduction in IL-1beta production at 10 to 40 uM incubated for 24 hrs by ELISA. Type of experiment: functional, cell-based. As to conditions: dose 10-40 µM.
In experiment [5] the test system is RAW264.7. The experiment can be described thus: Antiinflammatory activity in LPS-induced mouse RAW264.7 cells assessed as reduction in IL-6 production at 10 to 40 uM incubated for 24 hrs by ELISA. The format is functional, cell-based. To be noted: dose 10-40 µM.

Calls of active or inactive are those of the source. The calls are words filed in the database; no cut-off is given here.

For `C[C@H]1[C@H](C)CC[C@]2(C)CC[C@]3(C)C(=CC[C@@H]4[C@@]5(C)CC[C@H](O)C(C)(C)[C@@H]5CC[C@]43C)[C@H]12`, the viability at 10 µM in the experiment with HepG2 is 61%.

As for `CC1(C)CC[C@]2(CO)CC[C@]3(C)C(=CC[C@@H]4[C@@]5(C)CC[C@H](O)C(C)(C)[C@@H]5CC[C@]43C)[C@@H]2C1` [ERYTHRODIOL], the outcome in the experiment on RAW264.7 [1], in the experiment with RAW264.7 [4] and in the experiment on RAW264.7 [5] was Active. For the same compound, the Activity result with RAW264.7 [2] and in the experiment on RAW264.7 [3] was “Dose-Dependent Effect” each time. Also, in the experiment with HepG2, the viability at 10 µM was 61%.

`COC(=O)c1cc(OC)c2c(c1-c1c(CO)cc(OC)c3c1OCO3)OCO2` [BICYCLOL]: the viability at 10 µM with HepG2 was determined as 60%.

As to `C[C@H]1[C@H](C)CC[C@]2(CO)CC[C@]3(C)C(=CC[C@@H]4[C@@]5(C)CC[C@H](O)C(C)(C)[C@@H]5CC[C@]43C)[C@H]12` [UVAOL], the viability at 10 µM with HepG2 stood at 61%.

For the compound `CC1(C)CC[C@]2(C)CC[C@]3(C)C(=CC[C@@H]4[C@@]5(C)CC[C@H](O)C(C)(C)[C@@H]5CC[C@]43C)[C@@H]2C1` [beta-AMYRIN], the viability at 10 µM with HepG2 is 61%.
